# Structures can show the parent of a compound that is named as a salt.
# How the values were obtained:
# serotonin transporter = molecular target: T1, serotonin transporter (Rattus norvegicus, UniProt P31652); assay: 3H-paroxetine displacement, serotonin transporter affinity; assay type: binding
# T1 construct: displace ^3H-paroxetine from male rat frontal cortical membranes; from tissue; host or cells: male rat frontal cortex membranes
# human 5-HT1A receptors = molecular target: T2, human 5-HT1A receptors (Homo sapiens, UniProt P08908); assay: [3H] 8-OHDPAT displacement, 5-HT1A receptor affinity; assay type: binding; settings: displacement of [3H] 8-OHDPAT; CHO cells stably transfected with human 5-HT1A receptors
# T2 construct: expressed in transfected cells; host or cells: CHO cells, stably transfected
# T2 sequence (P08908 1-422): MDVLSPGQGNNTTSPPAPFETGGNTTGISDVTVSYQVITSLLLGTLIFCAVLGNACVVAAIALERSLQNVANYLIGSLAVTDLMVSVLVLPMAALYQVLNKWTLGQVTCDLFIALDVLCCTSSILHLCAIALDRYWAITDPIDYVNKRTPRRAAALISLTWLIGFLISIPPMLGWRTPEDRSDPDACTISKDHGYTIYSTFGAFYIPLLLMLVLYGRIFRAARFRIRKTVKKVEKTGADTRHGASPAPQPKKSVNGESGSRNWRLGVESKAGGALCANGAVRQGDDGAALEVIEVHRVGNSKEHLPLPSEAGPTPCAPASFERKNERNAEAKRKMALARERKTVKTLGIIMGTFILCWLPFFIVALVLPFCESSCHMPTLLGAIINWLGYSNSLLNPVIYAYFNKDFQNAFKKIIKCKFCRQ
# Excerpt: High affinity for the serotonin 5-HT1A receptor was established by testing the claimed compound's ability to displace [^3H] 8-OHDPAT (dipropylaminotetralin) from the 5-HT1A serotonin receptor following a modification of the procedure of Hall et al., J. Neurochem. 44, 1685 (1985) which utilizes CHO cells stably transfected with human 5-HT1A receptors.
# [1] = molecular target: T3, cloned human 5-HT1A receptors (Homo sapiens, UniProt P08908); assay: 35S-GTPγS binding assay, 5-HT1A function; assay type: biochemical; settings: for EC50: 35S-GTPγS binding to membranes containing cloned human 5-HT1A receptors; for Emax: maximum stimulatory effect on 35S-GTPγS binding, value in parentheses
# T3 construct: expressed in transfected cells
# T3 sequence (P08908 1-422): T2 sequence (P08908 1-422)
# Protocol: Agonist activity at 5-HT1A receptors was established by using a ^35S-GTPγS binding assay similar to that used by Lazareno and Birdsall (Br. J. Pharmacol. 109: 1120, 1993), in which the test compound's ability to affect the binding of ^35S-GTPγS to membranes containing cloned human 5-HT1A receptors was determined. Agonists produce an increase in binding whereas antagonists produce no increase but rather reverse the effects of the standard agonist 8-OHDPAT. The test compound's maximum stimulatory effect is represented as the Emax, while its potency is defined by the EC50.
# T1 sequence (P31652 whole entry): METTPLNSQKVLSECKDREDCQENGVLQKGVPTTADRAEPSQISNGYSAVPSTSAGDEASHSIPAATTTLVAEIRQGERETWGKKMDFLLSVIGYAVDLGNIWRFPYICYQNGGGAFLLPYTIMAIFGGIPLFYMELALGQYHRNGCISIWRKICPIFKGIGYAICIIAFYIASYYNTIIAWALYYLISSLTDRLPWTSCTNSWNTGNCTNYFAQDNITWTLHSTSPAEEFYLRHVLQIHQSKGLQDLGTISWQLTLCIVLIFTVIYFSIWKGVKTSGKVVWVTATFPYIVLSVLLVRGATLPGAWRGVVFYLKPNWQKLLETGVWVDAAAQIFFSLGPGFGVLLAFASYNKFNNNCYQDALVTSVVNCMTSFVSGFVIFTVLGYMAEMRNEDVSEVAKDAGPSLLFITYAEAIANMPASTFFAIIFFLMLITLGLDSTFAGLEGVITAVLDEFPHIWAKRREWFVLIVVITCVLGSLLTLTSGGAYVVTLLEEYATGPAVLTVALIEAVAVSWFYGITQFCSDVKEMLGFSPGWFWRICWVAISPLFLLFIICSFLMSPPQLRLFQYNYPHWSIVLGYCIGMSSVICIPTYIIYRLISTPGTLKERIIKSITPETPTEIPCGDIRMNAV
Structure (SMILES),melting point,Ki (serotonin transporter),Ki (human 5-HT1A receptors),EC50 [1],Emax [1]
"Fc1ccc2[nH]cc(C3=CCN(C[C@H]4CCc5ccc6ncccc6c5O4)CC3)c2c1 (as salt: fumarate) [Example 3, (6R)-6-[4-(5-Fluoro-1H-indol-3-yl)-3,6-dihydro-2H-pyridin-1-ylmethyl]-7,8-dihydro-6H-5-oxa-1aza-phenanthrene]",210 °C,–,–,–,–
"Fc1ccc2[nH]cc(C3=CCN(CC4CCc5ccc6ncccc6c5O4)CC3)c2c1 (centres unmarked) (as salt: oxalate) [Example 1, 6-[4-(5-Fluoro-1H-indol-3-yl)-3,6-dihydro-2H-pyridin-1-ylmethyl]-7,8-dihydro-6H-5-oxa-1aza-phenanthrene]",148 °C,–,–,–,–
"Fc1ccc2[nH]cc(C3=CCN(C[C@@H]4CCc5ccc6ncccc6c5O4)CC3)c2c1 (as salt: oxalate) [Example 2, (6S)-6-[4-(5-Fluoro-1H-indol-3-yl)-3,6-dihydro-2H-pyridin-1-ylmethyl]-7,8-dihydro-6H-5-oxa-1aza-phenanthrene]",210 °C,–,–,–,–
"Fc1ccc2[nH]cc(C3=CCN(CC4CCc5ccc6ncccc6c5O4)CC3)c2c1 (centres unmarked) [Example 1, 6-[4-(5-Fluoro-1H-indol-3-yl)-3,6-dihydro-2H-pyridin-1-ylmethyl]-7,8-dihydro-6H-5-oxa-1aza-phenanthrene]",–,8 nM,60.9 nM,103 nM,49%
"Fc1ccc2[nH]cc(C3=CCN(C[C@@H]4CCc5ccc6ncccc6c5O4)CC3)c2c1 [Example 2, (6S)-6-[4-(5-Fluoro-1H-indol-3-yl)-3,6-dihydro-2H-pyridin-1-ylmethyl]-7,8-dihydro-6H-5-oxa-1aza-phenanthrene]",–,5.96 nM,88.6 nM,–,5%
"Fc1ccc2[nH]cc(C3=CCN(C[C@H]4CCc5ccc6ncccc6c5O4)CC3)c2c1 [Example 3, (6R)-6-[4-(5-Fluoro-1H-indol-3-yl)-3,6-dihydro-2H-pyridin-1-ylmethyl]-7,8-dihydro-6H-5-oxa-1aza-phenanthrene]",–,6 nM,82.3 nM,78.9 nM,52%

# Source: US7030245B2, “Antidepressant azahetorocyclylmethyl derivatives of 7,8-dihydro-6H-5-oxa-1-aza-phenathrene” (Wyeth, priority 2001, dated 2006)
